Legend:
5-HT2A = target: T1, 5-HT2A (Homo sapiens, UniProt P28223); experiment: Radioligand binding assay, 5-HT2A
T1 construct: expressed in transfected cells
Protocol: (§1) [^3H] […] The reactions are incubated at room temperature for 3 hr. and then counted in a Trilux Microbeta™ scintillation counter to detect receptor-bound radioligand. Binding data are analyzed by computer-assisted 4 parameter fit analysis (ID Business Solutions Ltd, Guildford, Surrey, UK). […]
(§2) Affinity for other serotonin receptor subtypes as well as for alpha 1 & 2 adrenergic receptors can readily be determined by modification of the above described radioligand receptor binding assay using membranes derived from cells stably expressing the desired receptor subtype including the 5-HT1A, 5-HT1B, and 5-HT1D subtypes, as well as the 5-HT2A, 5-HT2B, 5-HT2C, 5-HT4, 5-HT7, and 5-HT6 receptor subtypes. […]

alpha 1 adrenergic = experiment: Radioligand binding assay, alpha 1 adrenergic
Protocol: as §1, §2

5-HT7 receptor = target: T2, 5-HT7 receptor (Homo sapiens, UniProt P34969); experiment: Functional antagonist assay: measurement of cAMP formation; format: cell-based
T2 construct: expressed in transfected cells
Protocol: For cAMP functional assays, the 5-HT7-expressing cells from above are grown in 150 cm^2 flasks and processed essentially as follows. The media is aspirated from the flasks and cells are washed with 1 mL PBS. The cells are released from the flask surface using enzyme free cell dissociation solution (Specialty media (www.chemicon.com) CAT#S-004-B) and resuspended in complete media. A sample of the cells is counted and the remainder is centrifuged as above for 3 min. The resulting cell pellet is resuspended in PBS at a concentration of 1×10^6 cells per mL and used directly in the cAMP assay as described.
The 5-HT7 receptor is functionally coupled to a G-protein as measured by the ability of serotonin and serotonergic drugs to stimulate cAMP production in CHO cells transfected with the 5-HT7 receptor. (Ruat, et al., Proceedings of the National Academy of Sciences (USA), 90:8547-8551, 1993.) Accordingly, functional receptor activity can be measured by measuring adenylate cyclase activity using a commercially available cell-based, homogeneous, time resolved fluorescence assay kit, as for example the kit produced by Cisbio-US, Inc. (Bedford, Mass.). Essentially, and using the protocol and reagents provided by the manufacturer, approximately 20,000 human 5-HT7 receptor-expressing AV-12 cells (as described above) are used with test compound dose concentrations in the range described for the binding assay. […] A cAMP standard curve is also run in every experiment. After the assay plates are read in an Envision™ instrument (Perkin-Elmer, Wellesley Mass.), the data are normalized to the standard curve and converted to percent inhibition for data analysis as described above for the receptor binding assay results. The Kb (nM) is calculated as a measure of the antagonist potency of the compound. Preferred compounds are those having percent inhibition >75%. Still other preferred compounds are those having Kb<50 nM.

T2 sequence (P34969 whole entry): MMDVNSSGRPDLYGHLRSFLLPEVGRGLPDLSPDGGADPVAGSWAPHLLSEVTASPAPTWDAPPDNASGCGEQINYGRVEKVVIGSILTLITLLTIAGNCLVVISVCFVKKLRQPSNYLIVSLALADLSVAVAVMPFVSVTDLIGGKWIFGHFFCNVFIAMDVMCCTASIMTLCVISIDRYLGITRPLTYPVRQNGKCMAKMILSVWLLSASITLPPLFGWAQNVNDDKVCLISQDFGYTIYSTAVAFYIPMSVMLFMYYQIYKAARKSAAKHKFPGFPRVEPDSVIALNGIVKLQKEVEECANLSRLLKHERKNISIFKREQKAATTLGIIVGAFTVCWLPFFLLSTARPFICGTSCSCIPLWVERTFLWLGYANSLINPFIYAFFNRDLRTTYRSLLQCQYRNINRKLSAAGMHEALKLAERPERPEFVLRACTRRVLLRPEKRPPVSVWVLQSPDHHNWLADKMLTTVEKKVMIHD
T1 sequence (P28223 whole entry, species assumed): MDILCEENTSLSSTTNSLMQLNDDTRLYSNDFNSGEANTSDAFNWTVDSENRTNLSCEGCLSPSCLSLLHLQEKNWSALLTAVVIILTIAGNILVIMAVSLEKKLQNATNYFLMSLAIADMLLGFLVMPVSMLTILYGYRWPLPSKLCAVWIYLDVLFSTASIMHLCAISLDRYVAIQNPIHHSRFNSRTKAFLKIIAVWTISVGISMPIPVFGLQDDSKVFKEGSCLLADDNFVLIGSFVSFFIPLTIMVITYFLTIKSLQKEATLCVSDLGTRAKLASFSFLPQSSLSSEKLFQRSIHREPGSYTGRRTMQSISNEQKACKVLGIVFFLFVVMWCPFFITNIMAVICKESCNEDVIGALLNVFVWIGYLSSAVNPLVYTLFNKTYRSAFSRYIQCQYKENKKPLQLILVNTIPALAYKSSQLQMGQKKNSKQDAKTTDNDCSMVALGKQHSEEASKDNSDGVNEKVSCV

In the case of `CCn1ncc(CN2CCN(c3cccnc3N3CCC(O)CC3)CC2)c1C.Cl` [Example 1, 3′-[4-(1-Ethyl-5-methyl-1H-pyrazol-4-ylmethyl)-piperazin-1-yl]-3,4,5,6-tetrahydro-2H-[1,2]bipyridinyl-4-ol hydrochloride], the Ki (5-HT2A) is reported as over 7470 nM, the Ki (alpha 1 adrenergic) is reported as 1380 nM and the Kb (5-HT7 receptor; antagonist potency, cAMP formation in 5-HT7 receptor-expressing AV-12 cells) is reported as about 2.97 nM. The antagonist character (5-HT7 receptor; cAMP formation in 5-HT7 receptor-expressing AV-12 cells) was “full antagonist” and the inhibition (5-HT7 receptor; percent inhibition of cAMP formation in 5-HT7 receptor-expressing AV-12 cells) was “about 108%”.
